Test results published in patent US8058314B2, “Conductance of improperly folded proteins through the secretory pathway and related methods for treating disease” (Yale University, priority 1999, dated 2011).
“Also recorded” adds a separate entry of the source.

Assays:
[1] = Toxicity test, thapsigargin in drinking water; type: in vivo, mice; conditions: drinking water with 1 μM thapsigargin over 3 to 7 days
Method: Genetically uniform lab mice were given either normal drinking water (control) or drinking water which contained thapsigargin (1 μM final concentration). The non-control group of mice were given the thapsigargin-treated water over a 3 to 7 day time period.

[2] = test system: ΔF508 CFTR mice; assay: Nasal potential difference (NPD) in CF mice homozygous for the ΔF508 mutation; type: in vivo; conditions: nebulized 1 μM thapsigargin or 50 microM curcumin, 3 hours/day for 7-14 days
From the text: Materials and Methods. CF mice, which were the kind gift of Mitch Drumm, have had the ΔF508 mutation introduced into their endogenous copies of the CFTR gene by homologous recombination and are homozygous for the ΔF508 mutation. Construction of these mice is described in Zeiher, G. B., et al., A mouse model for the delta F508 allele of cystic fibrosis. J. Clin. Invest. 96: 2051-2064, 1995, and additional studies of these mice are described in Steagall W K and Drumm M L, Stimulation of cystic fibrosis transmembrane conductance regulator-dependent short-circuit currents across Delta F508 murine intestines. Gastroenterology, 116(6):1379-88, 1999.
Nasal potential difference was measured essentially as described in Grubb, B. R., Vick, R. N., and Boucher, R. C., Hyperabsorption of Na^+ and raised Ca^2+-mediated Cl^− secretion in nasal epithelia of CF mice, Am. […]
After obtaining a stable baseline reading, infusion of Ringers solution was begun, and recording was initiated. After 5 mins of stable reading, the solution was changed successively to: (i) Ringer solution containing amiloride 10^−5 M; (ii) Ringer solution containing 0 mM chloride and 10^−5 M amiloride; (iii) Ringer solution containing 0 mM chloride, 10^−5 M amiloride, and 10^−5 M isoproterenol. NPD was recorded for each solution for 5 minutes of stable values. […]

[3] = test system: SERCA ATPases; conditions: cited from earlier work

C/C=C(/C)C(=O)O[C@H]1C(C)=C2[C@H]([C@@H]1OC(=O)CCCCCCC)[C@@](C)(OC(C)=O)C[C@H](OC(=O)CCC)[C@@]1(O)[C@H]2OC(=O)[C@@]1(C)O [thapsigargin]
deaths, illnesses or side effects [1]: no deaths, illnesses or side effects
basal NPD of treated ΔF508 CF mice [2]: markedly reduced relative to that in untreated CF mice; also recorded: dramatically reduce the basal NPD; also recorded: significantly smaller baseline NPD
reduction of efficacy as calcium pump inhibitor on loss of the ester groups ([3]; Christensen et al.): at least 40 fold
potency of SERCA inhibition [3]: subnanomolar
